Source: patent US20140329858A1, “Cyclic Urea Derivatives As Androgen Receptor Antagonists” (priority 2011, published 2014)

Test system: Vcap cells
Experiment: Dihydrotestosterone (DHT) mediated XTT cell proliferation assay for screening AR antagonists using Vcap cells
Assay type: cell-based
Settings: 0.2 nM DHT, effect reached at high conc
Protocol: Dihydrotestosterone (DHT) Mediated XTT Cell Proliferation Assay for Screening AR Antagonists Using Vcap cells
The Vcap cells (4×10^6 cells) were seeded in a T-75 flask containing DMEM with 15% FBS. After 72 hours, the media was removed; the cells were washed once and replaced with phenol red free DMEM containing 8% charcoal stripped serum. Then, the cells were starved in phenol red free DMEM with 8% charcoal stripped serum for 5 days. Following the starvation, the cells were harvested and seeded in 96 well plates (10×10^3 cells per well) in phenol red free DMEM with 8% charcoal stripped serum (Day 0). The cells were allowed to settle and on Day 4 they were treated with different concentrations of the compound (30 μM, 10 μM, 1 μM, 500 nM, 100 nM, 10 nM, 1 nM, 0.1 nM) in the presence of 0.2 nM DHT. DHT alone and a DMSO controls were also included. All treatments were done in triplicate. The drugs were replenished on Day 7 and the cells were allowed to grow for another 72 hours. On Day 10, the experiment was terminated by adding the XTT reagent (2,3-bis[2-methoxy-4-notro-5-sulfophenyl]-2H-tetrazolium-5-caboxyanilide inner salt) dissolved in Phenol red free DMEM without serum. The cells with the XTT reagents were incubated inside the CO2 incubator for 3-4 hours for color development; after which the readings were taken at […] using a spectramax Gemini plate reader.
Data fitting: The IC50 curves for the 8 compound concentrations were calculated with GraphPad Prism software using the sigmoidal dose-response function. (Graphpad Software, San Diego, Calif., USA).

Question: Which “XTT: only 65% @ high conc” value does the source give for `CNC(=O)c1ccc(N2C(=O)N(c3ccc(C#N)c(C(F)(F)F)c3)[C@@H]3CCCC[C@H]32)cn1` (racemic) [Example 53, Trans-5-(3-(4-cyano-3-(trifluoromethyl)phenyl)-2-oxooctahydro-1H-benzo[d]imidazol-1-yl)-N-methylpicolinamide (±)] here?
Answer: 65%

Same assay, conditions: Homo sapiens, 240 h, in the presence of 0.2 nM DHT, XTT readout on Day 10, IC50 curves from 8 concentrations

Question: Which IC50 does the source give for `CCOC(=O)c1ccc(N2C(=O)N(c3ccc(C#N)c(C(F)(F)F)c3)[C@@H]3CCCC[C@H]32)s1` (racemic) [Example 8, Trans-ethyl-5-(3-(4-cyano-3-(trifluoromethyl)phenyl)-2-oxooctahydro-1H-benzo[d]imidazol-1-yl)thiophene-2-carboxylate (±)] here?
Answer: > 10 µM

Question: For `N#Cc1ccc(CN2C(=O)N(c3ccc(C#N)c(C(F)(F)F)c3)[C@@H]3CCCC[C@H]32)cn1` (racemic) [Example 48, Trans-5-((-(4-cyano-3-(trifluoromethyl)phenyl)-2-oxooctahydro-1H-benzo[d]im-idazol-1-yl)methyl)picolinonitrile (±)], which IC50 is on record?
Answer: > 10 µM

Question: How did the IC50 turn out when `Cc1cc(N2C(=O)N(c3ccc(C#N)c(C(F)(F)F)c3)[C@H]3CCCC[C@@H]32)ccc1C(N)=O` [Example 70, 4-((3aS,7aS)-3-(4-cyano-3-(trifluoromethyl)phenyl)-2-oxooctahydro-1H-benzo[d]imidazol-1-yl)-2-methylbenzamide] was run?
Answer: 0.733 µM

Question: `CNC(=O)c1ccc(N2C(=O)N(c3ccc(C#N)c(C(F)(F)F)c3)[C@@H]3CCC(O)C[C@H]32)cc1F` (mixture of isomers) [Example 82, Trans-4-(3-(4-cyano-3-(trifluoromethyl)phenyl)-6-hydroxy-2-oxooctahydro-1H-benzo[d]imidazol-1-yl)-2-fluoro-N-methylbenzamide (±)] was tested. Which IC50 did it give?
Answer: 0.583 µM

Question: Which IC50 does the source give for `CNC(=O)c1ccc(N2C(=O)N(c3ccc(C#N)c(C(F)(F)F)c3)[C@@H]3CCCC[C@H]32)cn1` (racemic) [Example 53, Trans-5-(3-(4-cyano-3-(trifluoromethyl)phenyl)-2-oxooctahydro-1H-benzo[d]imidazol-1-yl)-N-methylpicolinamide (±)] here?
Answer: 0.165 µM

Question: How did the IC50 turn out when `Cc1cc(N2C(=O)N(c3ccc(C#N)c(C(F)(F)F)c3)[C@H]3COCC[C@@H]32)ccc1C(N)=O` (racemic) [Example 79, Trans-4-(3-(4-cyano-3-(trifluoromethyl)phenyl)-2-oxohexahydropyrano[3,4-c]imidazol-1(6H)-yl)-2-methylbenzamide (±)] was run?
Answer: 4.33 µM

Question: How did the IC50 turn out when `CS(=O)(=O)Nc1ccc(N2C(=O)N(c3ccc(C#N)c(C(F)(F)F)c3)[C@@H]3CCCC[C@H]32)cc1F` (racemic) [Example 16, Trans-N-(4-(3-(4-cyano-3-(trifluoromethyl)phenyl)-2-oxooctahydro-1H-benzo[d]imidazol-1-yl)-2-fluorophenyl)methanesulfonamide (±)] was run?
Answer: 2.45 µM

Question: For `N#Cc1ccc(N2C(=O)N(c3ccc(C(N)=O)c(F)c3)[C@@H]3CCCC[C@H]32)cc1C(F)(F)F` (racemic) [Example 30, Trans-4-(3-(4-cyano-3-(trifluoromethyl)phenyl)-2-oxooctahydro-1H-benzo[d]im-idazol-1-yl)-2-fluorobenzamide (±)], which IC50 is on record?
Answer: 0.0764 µM

Question: For `N#Cc1ccc(N2C(=O)N(c3ccc(C(=O)N[C@@H]4CCOC4)c(F)c3)[C@H]3CCCC[C@@H]32)cc1C(F)(F)F` [Example 36], which IC50 is on record?
Answer: 0.203 µM

Question: `CNC(=O)c1ccc(N2C(=O)N(c3ccc(C#N)c(C(F)(F)F)c3)[C@H]3C=CCC[C@@H]32)cc1F` (racemic) [Example 86, trans-4-(3-(4-cyano-3-(trifluoromethyl)phenyl)-2-oxo-2,3,3a,6,7,7a-hexahydro-1H-benzo[c]imidazol-1-yl)-2-fluoro-N-methylbenzamide (±)] was tested. Which IC50 did it give?
Answer: 0.043 µM

Question: How did the IC50 turn out when `N#Cc1ccc(N2C(=O)N(c3ccccc3)[C@@H]3CCCC[C@H]32)cc1C(F)(F)F` (racemic) [Example 5, Trans-4-(2-oxo-3-phenyloctahydro-1H-benzo[d]imidazol-1-yl)-2-(trifluoromethyl)benzonitrile (±)] was run?
Answer: 1.02 µM

Question: For `CC(CO)ONC(=O)c1ccc(N2C(=O)N(c3ccc(C#N)c(C(F)(F)F)c3)[C@@H]3CCCC[C@H]32)cc1F` (mixture of isomers) [Example 24, Trans-4-(3-(4-cyano-3-(trifluoromethyl)phenyl)-2-oxooctahydro-1H-benzo[c]im-idazol-1-yl)-2-fluoro-N-((1-hydroxypropan-2-yl)oxy)benzamide (±)], which IC50 is on record?
Answer: 1.52 µM

Question: With `N#Cc1ccc(N2C(=O)N(Cc3ccc(-n4cccn4)nc3)[C@@H]3CCCC[C@H]32)cc1C(F)(F)F` (racemic) [Example 50, Trans-4-(3-((6-(1H-pyrazol-1-yl)pyridin-3-yl)methyl)-2-oxooctahydro-1H-benzo[d]imidazol-1-yl)-2-(trifluoromethyl)benzonitrile (±)] as the compound, how does the IC50 read?
Answer: > 10 µM

Question: With `CNC(=O)c1ccc(N2C(=O)N(c3ccc(C#N)c(C(F)(F)F)c3)[C@@H]3CCC(=O)C[C@H]32)cc1F` (racemic) [Example 81, Trans-4-(3-(4-cyano-3-(trifluoromethyl)phenyl)-2,6-dioxooctahydro-1H-benzo[d]imidazol-1-yl)-2-fluoro-N-methylbenzamide (±)] as the compound, how does the IC50 read?
Answer: 0.703 µM

Question: `N#Cc1ccc(N2C(=O)N(c3ccc(C(=O)NC(CO)CO)c(F)c3)[C@H]3CCCC[C@@H]32)cc1C(F)(F)F` [Example 37, 4-((3aS,7aS)-3-(4-cyano-3-(trifluoromethyl)phenyl)-2-oxooctahydro-1H-benzo[d]imidazol-1-yl)-N-(1,3-dihydroxypropan-2-yl)-2-fluorobenzamide] was tested. Which IC50 did it give?
Answer: 6.08 µM

Question: Which IC50 does the source give for `CC(C)CONC(=O)c1ccc(N2C(=O)N(c3ccc(C#N)c(C(F)(F)F)c3)[C@@H]3CCCC[C@H]32)cc1F` (racemic) [Example 22, Trans-4-(3-(4-cyano-3-(trifluoromethyl)phenyl)-2-oxooctahydro-1H-benzo[d]im-idazol-1-yl)-2-fluoro-N-isobutoxybenzamide (±)] here?
Answer: 0.196 µM

Question: Which IC50 does the source give for `N#Cc1ccc(N2C(=O)N(c3ccc(C(=O)NOCC4CCCO4)c(F)c3)[C@@H]3CCCC[C@H]32)cc1C(F)(F)F` (mixture of isomers) [Example 27, Trans 4-(3-(4-cyano-3-(trifluoromethyl)phenyl)-2-oxooctahydro-1H-benzo[c]im-idazol-1-yl)-2-fluoro-N-((tetrahydrofuran-2-yl)methoxy)benzamide (±)] here?
Answer: 0.196 µM

Question: For `CNC(=O)c1ccc(N2C(=O)N(c3ccc(C#N)c(C(F)(F)F)c3)[C@@H]3CCCC[C@H]32)cc1F` (racemic) [Example 1, Trans-4-{3-[4-cyano-3-(trifluoromethyl)phenyl]-2-oxo-octahydro-1H-1,3-benzodiazol-1-yl}-2-fluoro-N-Methylbenzamide (±)], which IC50 is on record?
Answer: 0.245 µM

Question: With `Cc1cc(N2C(=O)N(c3ccc(C#N)c(C(F)(F)F)c3)[C@@H]3COCC[C@H]32)ccn1` (racemic) [Example 72, Trans-4-(1-(2-methylpyridin-4-yl)-2-oxohexahydropyrano[3,4-d]imidazol-3(2H)-yl)-2-(trifluoromethyl)benzonitrile (±)] as the compound, how does the IC50 read?
Answer: > 10 µM

Question: `CN1C(=O)N(c2ccc(C#N)c(C(F)(F)F)c2)[C@@H]2CCC(c3ccccc3)C[C@H]21` (stereo partly drawn) [Example 90, Trans-4-(3-methyl-2-oxo-5-phenyloctahydro-1H-benzo[d]imidazol-1-yl)-2-(trifluoromethyl)benzonitrile] was tested. Which IC50 did it give?
Answer: 0.372 µM

Question: How did the IC50 turn out when `N#Cc1ccc(N2C(=O)N(c3ccc(CO)c(F)c3)[C@H]3CCCC[C@@H]32)cc1C(F)(F)F` [Example 46, 4-((3aS,7aS)-3-(3-fluoro-4-(hydroxymethyl)phenyl)-2-oxooctahydro-1H-benzo[d]imidazol-1-yl)-2-(trifluoromethyl)benzonitrile] was run?
Answer: 0.66 µM

Question: For `CC(=O)N(C)c1ccc(N2C(=O)N(c3ccc(C#N)c(C(F)(F)F)c3)[C@@H]3CCCC[C@H]32)cc1F` (racemic) [Example 13, Trans-N-(4-(3-(4-cyano-3-(trifluoromethyl)phenyl)-2-oxooctahydro-1H-benzo[d]imidazol-1-yl)-2-fluorophenyl)-N-methylacetamide (±)], which IC50 is on record?
Answer: 1.05 µM

Same assay, conditions: in the presence of 0.2 nM DHT, XTT readout on Day 10, IC50 curves from 8 concentrations

Question: `N#Cc1ccc(N2C(=O)N(c3ccc(C#N)c(C(F)(F)F)c3)[C@@H]3CCCC[C@H]32)cc1C(F)(F)F` (relative stereo) [Example 2b, Trans-4,4′-(2-oxohexahydro-1H-benzo[d]imidazole-1,3(2H)-diyl)bis(2-(trifluoromethyl)benzonitrile) (+)] was tested. Which IC50 did it give?
Answer: > 10 µM

Question: How did the IC50 turn out when `CNC(=O)c1ccc(N2C(=O)N(c3ccc(C#N)c(C(F)(F)F)c3)C3CCC(O)CC32)cc1F` (single isomer, unassigned) [Example 82a, Trans-4-(3-(4-cyano-3-(trifluoromethyl)phenyl)-6-hydroxy-2-oxooctahydro-1H-benzo[d]imidazol-1-yl)-2-fluoro-N-methylbenzamide (+)] was run?
Answer: > 10 µM

Question: With `CNC(=O)c1ccc(N2C(=O)N(c3ccc(C#N)c(C(F)(F)F)c3)[C@@H]3COCC[C@H]32)cc1F` (relative stereo) [Example 71a, Trans-4-{3-[4-Cyano-3-(trifluoromethyl)phenyl]-2-oxo-octahydropyrano[3,4-d]imidazolidin-1-yl}-2-fluoro-N-methylbenzamide (+)] as the compound, how does the IC50 read?
Answer: > 10 µM

Question: For `N#Cc1ccc(N2C(=O)N(c3ccccc3)[C@@H]3CCCC[C@H]32)cc1C(F)(F)F` (relative stereo) [Example 5a, Trans-4-(2-oxo-3-phenyloctahydro-1H-benzo[d]imidazol-1-yl)-2-(trifluoromethyl)benzonitrile (+)], which IC50 is on record?
Answer: 1.76 µM
